According to ChEMBL document CHEMBL3856195, “2,3,4-Trihydroxybenzyl-hydrazide analogues as novel potent coxsackievirus B3 3C protease inhibitors” (Eur J Med Chem, 2016):
The source made the active and inactive calls. No cut-off for these calls is given here.

Tests used:
Genome polyprotein [1] = molecular target: T1, Genome polyprotein (Coxsackievirus B3 (strain Nancy), UniProt P03313); test: Inhibition of recombinant Coxsackievirus B3 C-terminal 6His-tagged 3C protease expressed in Escherichia coli BL21 preincubated for 20 mins followed by addition of fluorogenic peptide as substrate by Cheng-Prusoff equation analysis
Genome polyprotein [2] = molecular target: T1, Genome polyprotein; test: Inhibition of recombinant Coxsackievirus B3 3C protease expressed in Escherichia coli BL21 (DE3) preincubated for 5 mins followed by addition of NMA-EALFQGPPVK-DNP-rrr-NH2 as substrate measured up to 2 hrs by FRET-based enzyme assay
Coxsackievirus B3 = test: Antiviral activity against Coxsackievirus B3 infected in human HeLa cells at 10 uM measured after 20 to 24 hrs by CCK8 assay; format: functional; details: Enterovirus B
[3] = Cytotoxicity against human HeLa cells assessed as reduction in cell viability at 10 and 100 uM by CCK8 assay; format: toxicity, cell-based
Genome polyprotein [4] = molecular target: T1, Genome polyprotein; test: Inhibition of recombinant Coxsackievirus B3 3C protease expressed in Escherichia coli BL21 (DE3) preincubated for 5 mins followed by addition of NMA-EALFQGPPVK-DNP-rrr-NH2 as substrate measured every 10 mins for 2 hrs by FRET-based enzyme assay
[5] = Apparent permeability in MDCK cells at 50 uM and measured after 30 mins by LC-MS/MS analysis; format: ADME, cell-based, Canis lupus familiaris; details: dog
[6] = molecular target: Genome polyprotein (Coxsackievirus B3 (strain Nancy)) (UniProt P03313); test: Non-competitive inhibition of recombinant Coxsackievirus B3 3C protease expressed in Escherichia coli BL21 (DE3) preincubated with protein followed by addition of NMA-EALFQGPPVK-DNP-rrr-NH2 as substrate measured every 5 mins for 2 hrs by Michaelis-Menten plot analysis
Genome polyprotein [7] = molecular target: T1, Genome polyprotein; test: Competitive inhibition of recombinant Coxsackievirus B3 3C protease expressed in Escherichia coli BL21 (DE3) preincubated with protein followed by addition of NMA-EALFQGPPVK-DNP-rrr-NH2 as substrate measured every 5 mins for 2 hrs by Dixon plot analysis
[8] = molecular target: Genome polyprotein (Coxsackievirus B3 (strain Nancy)) (UniProt P03313); test: Mixed-type inhibition of recombinant Coxsackievirus B3 3C protease expressed in Escherichia coli BL21 (DE3) preincubated with protein followed by addition of NMA-EALFQGPPVK-DNP-rrr-NH2 as substrate measured every 5 mins for 2 hrs by Lineweaver-Burk plot analysis

T1 sequence (P03313 1541-1723 limits assumed): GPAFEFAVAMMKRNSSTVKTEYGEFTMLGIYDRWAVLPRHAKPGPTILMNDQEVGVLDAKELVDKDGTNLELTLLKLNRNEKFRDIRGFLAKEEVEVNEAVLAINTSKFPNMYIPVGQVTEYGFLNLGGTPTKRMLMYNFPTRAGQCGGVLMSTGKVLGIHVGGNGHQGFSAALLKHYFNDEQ
Sequence of Genome polyprotein (Coxsackievirus B3 (strain Nancy)) (P03313 whole entry): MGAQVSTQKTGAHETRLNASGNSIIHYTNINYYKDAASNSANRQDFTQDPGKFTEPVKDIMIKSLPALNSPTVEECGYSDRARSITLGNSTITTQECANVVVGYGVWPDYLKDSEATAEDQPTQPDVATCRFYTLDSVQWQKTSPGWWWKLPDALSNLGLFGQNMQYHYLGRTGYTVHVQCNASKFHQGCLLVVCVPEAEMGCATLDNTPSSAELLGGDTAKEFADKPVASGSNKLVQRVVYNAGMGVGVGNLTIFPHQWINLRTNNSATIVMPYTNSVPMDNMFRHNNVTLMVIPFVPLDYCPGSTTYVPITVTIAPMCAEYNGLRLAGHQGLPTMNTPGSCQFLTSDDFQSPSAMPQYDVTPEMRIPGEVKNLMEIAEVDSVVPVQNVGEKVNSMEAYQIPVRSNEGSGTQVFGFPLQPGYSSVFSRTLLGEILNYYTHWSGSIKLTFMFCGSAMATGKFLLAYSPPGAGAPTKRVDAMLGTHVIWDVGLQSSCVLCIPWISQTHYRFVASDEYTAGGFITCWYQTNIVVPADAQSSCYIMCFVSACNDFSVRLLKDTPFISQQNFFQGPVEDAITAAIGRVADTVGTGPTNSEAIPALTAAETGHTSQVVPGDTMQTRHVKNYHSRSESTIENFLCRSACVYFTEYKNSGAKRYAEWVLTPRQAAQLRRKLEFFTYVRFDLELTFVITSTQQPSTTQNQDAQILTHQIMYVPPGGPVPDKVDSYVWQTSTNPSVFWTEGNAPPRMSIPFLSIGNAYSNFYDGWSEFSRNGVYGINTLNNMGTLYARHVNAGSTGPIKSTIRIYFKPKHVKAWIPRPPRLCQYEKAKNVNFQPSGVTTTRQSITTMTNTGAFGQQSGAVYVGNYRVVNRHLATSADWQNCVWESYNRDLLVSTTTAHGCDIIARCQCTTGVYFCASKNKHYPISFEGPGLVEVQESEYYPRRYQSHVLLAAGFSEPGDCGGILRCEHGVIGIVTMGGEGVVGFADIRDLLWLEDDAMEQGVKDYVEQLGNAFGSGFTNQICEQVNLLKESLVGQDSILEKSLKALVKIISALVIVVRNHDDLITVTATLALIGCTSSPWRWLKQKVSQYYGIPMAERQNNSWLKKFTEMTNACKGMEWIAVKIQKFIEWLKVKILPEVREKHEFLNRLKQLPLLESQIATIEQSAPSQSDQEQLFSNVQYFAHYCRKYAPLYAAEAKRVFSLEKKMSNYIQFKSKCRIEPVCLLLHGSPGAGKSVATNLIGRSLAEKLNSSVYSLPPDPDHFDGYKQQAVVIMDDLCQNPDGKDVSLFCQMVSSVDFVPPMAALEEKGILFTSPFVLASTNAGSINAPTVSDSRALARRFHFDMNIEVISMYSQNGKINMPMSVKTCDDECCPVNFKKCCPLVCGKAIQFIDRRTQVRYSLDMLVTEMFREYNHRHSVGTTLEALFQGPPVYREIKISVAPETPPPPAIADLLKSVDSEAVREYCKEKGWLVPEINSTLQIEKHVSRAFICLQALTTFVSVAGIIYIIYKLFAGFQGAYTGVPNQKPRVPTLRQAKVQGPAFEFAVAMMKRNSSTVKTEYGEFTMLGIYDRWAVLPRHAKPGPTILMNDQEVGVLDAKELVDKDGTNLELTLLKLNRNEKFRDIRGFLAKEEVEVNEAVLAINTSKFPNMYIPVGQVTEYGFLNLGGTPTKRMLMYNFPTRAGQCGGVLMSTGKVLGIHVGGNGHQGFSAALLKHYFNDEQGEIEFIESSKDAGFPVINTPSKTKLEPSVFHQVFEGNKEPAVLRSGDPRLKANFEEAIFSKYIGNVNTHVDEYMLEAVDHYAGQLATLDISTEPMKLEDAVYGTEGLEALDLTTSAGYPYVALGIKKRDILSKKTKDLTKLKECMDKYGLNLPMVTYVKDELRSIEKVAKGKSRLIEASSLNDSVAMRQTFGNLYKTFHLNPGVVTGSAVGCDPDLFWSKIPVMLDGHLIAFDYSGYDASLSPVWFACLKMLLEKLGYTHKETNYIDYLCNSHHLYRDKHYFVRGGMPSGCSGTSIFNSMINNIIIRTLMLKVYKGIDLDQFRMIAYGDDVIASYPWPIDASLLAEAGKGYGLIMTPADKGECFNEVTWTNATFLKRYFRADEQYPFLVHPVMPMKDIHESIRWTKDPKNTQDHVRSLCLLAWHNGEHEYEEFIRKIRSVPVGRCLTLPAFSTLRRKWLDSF

| SMILES | IC50 (Genome polyprotein [2]) | other results |
| --- | --- | --- |
| CC(=O)/C=C/[C@H](C[C@@H]1CNCC1=O)NC(=O)[C@H](CC(C)C)NC(=O)[C@H](CNC(=O)C(C)(C)C)NC(=O)OCc1ccccc1 | – | Ki (Genome polyprotein [1]): 800 nM |
| CC(C)(C)OC(=O)NC(Cc1ccc(F)cc1)C(=O)N/N=C/c1ccc(O)c(O)c1O (stereo not drawn) | 890 nM | – |
| O=C(CCCCc1ccc(F)cc1)NNCc1ccc(O)c(O)c1O | 230 nM | – |
| O=C(CCCCc1ccc(F)cc1)N/N=C/c1ccc(O)c(O)c1O | 470 nM | – |
| Cc1cc(C(=O)N[C@H](C(=O)N[C@@H](Cc2ccc(F)cc2)C(=O)NNCc2ccc(O)c(O)c2O)C(C)C)no1 | 230 nM | – |
| O=C(Cc1ccc(F)cc1)NNCc1ccc(O)c(O)c1O | 340 nM | – |
| O=C(N/N=C/c1ccc(O)c(O)c1O)c1ccc(F)cc1 | 870 nM | – |
| O=C(NNCc1ccc(O)c(O)c1O)c1ccc(Cl)cc1 | 430 nM | – |
| CS(=O)(=O)c1ccc(C(=O)NNCc2ccc(O)c(O)c2O)cc1 | 770 nM | – |
| O=C(Cc1ccccc1)NNCc1ccc(O)c(O)c1O | 410 nM | – |
| O=C(N/N=C/c1cccc(O)c1)c1ccccc1 | > 50000 nM | – |
| Cc1cc(C(=O)N[C@H](C(=O)N[C@@H](Cc2ccc(F)cc2)C(=O)N/N=C/c2ccc(O)c(O)c2O)C(C)C)no1 | 610 nM | – |
| O=C(N/N=C/c1ccc(O)c(O)c1)c1ccccc1 | > 50000 nM | – |
| O=C(CCc1ccc(O)cc1)NNCc1ccc(O)c(O)c1O | 80 nM | – |
| O=C(CCCCc1ccccc1)NNCc1ccc(O)c(O)c1O | 190 nM | – |
| O=C(N/N=C/c1ccc(O)cc1O)c1ccccc1 | > 50000 nM | – |
| O=C(CCc1ccccc1)N/N=C/c1ccc(O)c(O)c1O | 690 nM | – |
| CS(=O)(=O)c1ccc(C(=O)N/N=C/c2ccc(O)c(O)c2O)cc1 | 890 nM | – |
| O=C(Cc1ccc(O)cc1)N/N=C/c1ccc(O)c(O)c1O | 180 nM | – |
| CCCCC(=O)Oc1c(O)ccc(CNNC(=O)CCCCc2ccc(O)cc2)c1O | 870 nM | inhibition at 10 µM (Coxsackievirus B3): 43%; Activity [3]: Non-Toxic |
| O=C(N/N=C/c1cccc(O)c1O)c1ccccc1 | > 50000 nM | – |

| SMILES | IC50 (Genome polyprotein [2]) | other results |
| --- | --- | --- |
| O=C(N/N=C/c1ccc(O)c(O)c1O)c1ccc(Br)cc1 | 460 nM | – |
| O=C(Cc1ccccc1)N/N=C/c1ccc(O)c(O)c1O | 750 nM | – |
| O=C(CCCc1ccccc1)NNCc1ccc(O)c(O)c1O | 340 nM | – |
| CC(C)(C)OC(=O)NC(Cc1ccc(O)cc1)C(=O)N/N=C/c1ccc(O)c(O)c1O (stereo not drawn) | 540 nM | – |
| O=C(CCc1ccc(O)cc1)N/N=C/c1ccc(O)c(O)c1O | 120 nM | – |
| O=C(CCc1ccc(F)cc1)NNCc1ccc(O)c(O)c1O | 200 nM | – |
| O=C(N/N=C/c1ccccc1)c1ccccc1 | > 50000 nM | – |
| O=C(NNCc1ccc(O)c(O)c1O)c1ccccc1 | 650 nM | – |
| O=C(NNCc1c(O)cc(O)cc1O)c1ccccc1 | 770 nM | – |
| NC(CO)C(=O)N/N=C/c1ccc(O)c(O)c1O (stereo not drawn) | – | IC50 (Genome polyprotein [4]): 2700 nM |
| O=C(Cc1ccc(F)cc1)N/N=C/c1ccc(O)c(O)c1O | 660 nM | – |
| O=C(CCc1ccc(F)cc1)N/N=C/c1ccc(O)c(O)c1O | 580 nM | – |
| O=C(CCCc1ccc(F)cc1)NNCc1ccc(O)c(O)c1O | 400 nM | – |
| CC(C)(C)OC(=O)NC(Cc1ccc(F)cc1)C(=O)NNCc1ccc(O)c(O)c1O (stereo not drawn) | 780 nM | – |
| O=C(N/N=C/c1c(O)cc(O)cc1O)c1ccccc1 | 1070 nM | – |
| O=C(N/N=C/c1ccc(O)c(O)c1O)c1ccc(Cl)cc1 | 590 nM | – |
| CS(=O)(=O)c1cccc(/C=N/NC(=O)c2ccccc2)c1 | > 50000 nM | – |
| O=C(N/N=C/c1ccc(O)c(O)c1O)c1ccccc1 | 970 nM | – |
| O=C(NNCc1ccc(O)c(O)c1O)c1ccc(Br)cc1 | 210 nM | – |
| O=C(CCc1ccccc1)NNCc1ccc(O)c(O)c1O | 320 nM | – |
| CC(C)(C)OC(=O)NC(Cc1ccc(O)cc1)C(=O)NNCc1ccc(O)c(O)c1O (stereo not drawn) | 270 nM | – |

| SMILES | IC50 (Genome polyprotein [2]) | other results |
| --- | --- | --- |
| O=C(N/N=C/c1ccc(O)c(O)c1O)c1ccc(O)cc1 | 320 nM | Activity [3]: Non-Toxic |
| O=C(CCCc1ccc(O)cc1)NNCc1ccc(O)c(O)c1O | 100 nM | – |
| O=C(N/N=C/c1ccc(O)cc1)c1ccccc1 | > 50000 nM | – |
| CS(=O)(=O)c1ccc(/C=N/NC(=O)c2ccccc2)cc1 | > 50000 nM | – |
| O=C(CCCc1ccc(F)cc1)N/N=C/c1ccc(O)c(O)c1O | 640 nM | – |
| O=C(CCCc1ccc(O)cc1)N/N=C/c1ccc(O)c(O)c1O | 160 nM | – |
| O=C(N/N=C/c1ccccc1O)c1ccccc1 [SALICYLALDEHYDE BENZOYL HYDRAZONE] | > 50000 nM | – |
| NC(CO)C(=O)NNCc1ccc(O)c(O)c1O (stereo not drawn) [BENSERAZIDE] | – | IC50 (Genome polyprotein [4]): 2400 nM |
| O=C(NNCc1ccc(O)c(O)c1O)c1ccc(F)cc1 | 650 nM | – |
| O=C(CCCCc1ccc(O)cc1)N/N=C/c1ccc(O)c(O)c1O | 110 nM | Papp at 0.5 h, 50 µM [5]: 11 ×10⁻⁶ cm/s; Activity [3]: Non-Toxic |
| O=C(Cc1ccc(O)cc1)NNCc1ccc(O)c(O)c1O | 110 nM | – |
| O=C(CCCCc1ccccc1)N/N=C/c1ccc(O)c(O)c1O | 440 nM | – |
| O=C(N/N=C/c1cc(O)ccc1O)c1ccccc1 | 5510 nM | – |
| CCCCC(=O)Oc1c(O)ccc(/C=N/NC(=O)CCCCc2ccc(O)cc2)c1O | 970 nM | inhibition at 10 µM (Coxsackievirus B3): 62%; Papp at 0.5 h, 50 µM [5]: 25 ×10⁻⁶ cm/s; Activity [3]: Non-Toxic |
| CCCCC(=O)Oc1c(O)ccc(CNNC(=O)c2ccc(O)cc2)c1O | 1020 nM | inhibition at 10 µM (Coxsackievirus B3): 38% |
| O=C(N/N=C/c1cc(O)cc(O)c1)c1ccccc1 | > 50000 nM | – |
| CCCCC(=O)Oc1c(O)ccc(/C=N/NC(=O)c2ccc(O)cc2)c1O | 1210 nM | inhibition at 10 µM (Coxsackievirus B3): 42%; Activity [3]: Non-Toxic |
| O=C(CCCc1ccccc1)N/N=C/c1ccc(O)c(O)c1O | 710 nM | – |
| O=C(CCCCc1ccc(O)cc1)NNCc1ccc(O)c(O)c1O | 70 nM | inhibition [6]: Dose-dependent effect; Ki (Genome polyprotein [7]): 324 nM; inhibition [8]: Active; Activity [3]: Non-Toxic |
| O=C(NNCc1ccc(O)c(O)c1O)c1ccc(O)cc1 | 170 nM | Activity [3]: Non-Toxic |
